Earlier results on one molecule are cited in patent publication US5395974A, “Lewis acid catalyzed ammonolysis of nylon” (E. I. Du Pont de Nemours and Company, priority 1994, dated 1995).

The conditions of the series: values in square brackets in the text.

Take `O=C(O)C(F)(F)F` [CF3 CO2 --]: the “pKa of the conjugate acid of the anion” value is on record as 0.2.
